Laboratory results as given in patent publication US20260070900A1, “A NOVEL CRYSTALLINE FORM OF PRITELIVIR” (Assembly Biosciences, Inc., priority 2022, published 2026).
“Also recorded” adds a separate entry of the source.

Key:
[1] = Solubility determination in 0.9% NaCl and 0.5% polysorbate 80 (HPLC of filtrate); assay type: physicochemical; conditions: RT, aqueous vehicle with 0.9% NaCl and 0.5% polysorbate 80, at 24 hours
Description: Sample preparation: excess Type 4 was added to the vehicle containing 0.9% NaCl and 0.5% polysorbate 80. The mixture was sonicated for 15 minutes, then agitated at 500 rpm at room temperature. At 24 hours, the mixture was filtrated, and filtrate was analyzed by HPLC to determine the solubility. • Instrument: Agilent 1260 • Column: ACE ultracore super C18 (100 mm*4.6 mm*2.5 μm) (P/N: CORE-25A-1046U) • Wavelength: 234 nm • Column Temperature: 20° C. • Column Flow: 1.0 mL/min • Acquisition time: 25 min • Injection volume: 5 μL • Retention time: ˜14 min • Mobile Phase A: 5 mM (NH4)2HPO4 and 5 mM of NH4H2PO4 in H2O • Mobile Phase B: ACN The solubility of Form C (hemihydrate as disclosed in WO 2018/096170) was determined in the same media used to determine the solubility of Type 4 as described above. Sample preparation: excess Form C was added to the vehicle containing 0.9% NaCl and 0.5% polysorbate 80. The mixture was sonicated for 15 minutes, then agitated at 500 rpm at room temperature. […]

[2] = Dynamic vapor sorption (DVS) humidity stability, with XRPD post-DVS; assay type: physicochemical
Description: Powder X-Ray Diffraction (PXRD): PXRD diffractograms were acquired on Rigaku Smartlab SE diffractometer using Cu, Kα, Kα1(Å):1.540598, Kα2(Å):1.544426 radiation with a Kα2:Kα1 intensity ratio of 0.50. X-Ray tube setting was 40 kV, 15 mA, Scan Mode 1D. The scan range (2 theta) was 3-40°, step size (2 theta) of 0.02° with scan speed (2 theta) of 10°/min. Dynamic Vapor Sorption (DVS): DVS analysis was performed on an Adventure DVS instrument, using a partial pressure range of 0-90%, with a step size of 10% and dm/dt=0.002. DVS data was collected at 25° C. 2 cycles were performed per analysis. Gas flow of N2 (200 sccm) was used.

[3] = DVS at 25° C., 0-90% partial pressure, 2 cycles

solubility [1]	relative humidity at which the form is stable (DVS) [2, 3]	relative humidity at which weight loss is observed (DVS) [2, 3]	solid form post DVS experiment by XRPD ([2]; after DVS, XRPD)	SMILES	stability to humidity (in words) ([2]; conclusion from the characterization data of Example 1)
around 8.4 μg/mL	–	–	–	Cc1nc(N(C)C(=O)Cc2ccc(-c3ccccn3)cc2)sc1S(N)(=O)=O [Form C, N-methyl-N-(4-methyl-5-sulfamoylthiazol-2-yl)-2-(4-(pyridin-2-yl)phenyl)acetamide, reference compound]	–
around 18.2 μg/mL	greater than 20%	less than 10%	confirmed as Type 4	Cc1nc(N(C)C(=O)Cc2ccc(-c3ccccn3)cc2)sc1S(N)(=O)=O [Type 4, N-methyl-N-(4-methyl-5-sulfamoylthiazol-2-yl)-2-(4-(pyridin-2-yl)phenyl)acetamide]	stable across a large humidity range; also recorded: stable across a wide range of humidity levels
